Assay type in all cases: functional, cell membranes
Common to all, as to set-up: scale not given: the % may be the effect or the level left

Experiment [1] deals with Multidrug resistance associated protein (Homo sapiens) (UniProt Q96QA9). Description: TP_TRANSPORTER: inhibition of Etoposide glucuronide uptake (Etoposide glucuronide: 0.094 uM, […] uM) by Glycolithocholate-3-sulfate at a concentration of 20uM in membrane vesicle from MRP3-expressing Sf9 cells.
Experiment [2] has the same target. Description: TP_TRANSPORTER: inhibition of Etoposide glucuronide uptake (Etoposide glucuronide: 0.094 uM, GLC-S: 20.0 uM) in membrane vesicles from MRP3-expressing Sf9 cells. The settings on record: Membrane vesicle.
Experiment [3] shares this target. Description: TP_TRANSPORTER: inhibition of Etoposide glucuronide uptake (Etoposide glucuronide: 0.094 uM, TCDC: 500.0 uM) in membrane vesicles from MRP3-expressing Sf9 cells. The settings on record: Membrane vesicle.
Experiment [4] has the same target. The experiment is described as follows: TP_TRANSPORTER: inhibition of Etoposide glucuronide uptake (Etoposide glucuronide: 0.094 uM, TCDC: 500 uM) by Taurochenodeoxycholate at a concentration of 500uM in membrane vesicle from MRP3-expressing Sf9 cells.
Experiment [5] shares this target. Description: TP_TRANSPORTER: inhibition of Etoposide glucuronide uptake (Etoposide glucuronide: 0.094 uM, MK571: 20 uM) by MK-571 at a concentration of 20uM in membrane vesicle from MRP3-expressing Sf9 cells.
For experiment [6] the target is unchanged. The experiment is described as follows: TP_TRANSPORTER: inhibition of Etoposide glucuronide uptake (Etoposide glucuronide: 0.094 uM, MK-571: 20.0 uM) in membrane vesicles from MRP3-expressing Sf9 cells. The settings on record: Membrane vesicle.
Experiment [7] has the same target. Description: TP_TRANSPORTER: inhibition of Etoposide glucuronide uptake (Etoposide glucuronide: 0.094 uM, TLCAS: 50 uM) by Taurolithocholate-3-sulfate at a concentration of 50uM in membrane vesicle from MRP3-expressing Sf9 cells.
Experiment [8] has the same target. Description: TP_TRANSPORTER: inhibition of Etoposide glucuronide uptake (Etoposide glucuronide: 0.094 uM, TLC-S: 50.0 uM) in membrane vesicles from MRP3-expressing Sf9 cells. The settings on record: Membrane vesicle.
Experiment [9] has the same target. Description: TP_TRANSPORTER: inhibition of Etoposide glucuronide uptake (Etoposide glucuronide: 0.094 uM, TDCA: 500.0 uM) in membrane vesicles from MRP3-expressing Sf9 cells. The settings on record: Membrane vesicle.
Experiment [10] has the same target. Description: TP_TRANSPORTER: inhibition of Etoposide glucuronide uptake (Etoposide glucuronide: 0.094 uM, TDCA: 500 uM) by Taurodeoxycholate at a concentration of 500uM in membrane vesicle from MRP3-expressing Sf9 cells.
Experiment [11] shares this target. Description: TP_TRANSPORTER: inhibition of Etoposide glucuronide uptake (Etoposide glucuronide: 0.094 uM, Lithocholic acid-sulfate: 20 uM) by Lithocholate-3-sulfate at a concentration of 20uM in membrane vesicle from MRP3-expressing Sf9 cells.
The target is the same in experiment [12]. The experiment is described as follows: TP_TRANSPORTER: inhibition of Etoposide glucuronide uptake (Etoposide glucuronide: 0.094 uM, LC-S: 20.0 uM) in membrane vesicles from MRP3-expressing Sf9 cells. The settings on record: Membrane vesicle.
Experiment [13] has the same target. The experiment is described as follows: TP_TRANSPORTER: inhibition of Etoposide glucuronide uptake (Etoposide glucuronide: 0.094 uM, GC: 500.0 uM) in membrane vesicles from MRP3-expressing Sf9 cells. The settings on record: Membrane vesicle.
For experiment [14] the target is unchanged. The experiment is described as follows: TP_TRANSPORTER: inhibition of Etoposide glucuronide uptake (Etoposide glucuronide: 0.094 uM, GC: 500 uM) by Glycocholate at a concentration of 500uM in membrane vesicle from MRP3-expressing Sf9 cells.

Chain of Multidrug resistance associated protein (Homo sapiens) (Q96QA9 as listed by the source): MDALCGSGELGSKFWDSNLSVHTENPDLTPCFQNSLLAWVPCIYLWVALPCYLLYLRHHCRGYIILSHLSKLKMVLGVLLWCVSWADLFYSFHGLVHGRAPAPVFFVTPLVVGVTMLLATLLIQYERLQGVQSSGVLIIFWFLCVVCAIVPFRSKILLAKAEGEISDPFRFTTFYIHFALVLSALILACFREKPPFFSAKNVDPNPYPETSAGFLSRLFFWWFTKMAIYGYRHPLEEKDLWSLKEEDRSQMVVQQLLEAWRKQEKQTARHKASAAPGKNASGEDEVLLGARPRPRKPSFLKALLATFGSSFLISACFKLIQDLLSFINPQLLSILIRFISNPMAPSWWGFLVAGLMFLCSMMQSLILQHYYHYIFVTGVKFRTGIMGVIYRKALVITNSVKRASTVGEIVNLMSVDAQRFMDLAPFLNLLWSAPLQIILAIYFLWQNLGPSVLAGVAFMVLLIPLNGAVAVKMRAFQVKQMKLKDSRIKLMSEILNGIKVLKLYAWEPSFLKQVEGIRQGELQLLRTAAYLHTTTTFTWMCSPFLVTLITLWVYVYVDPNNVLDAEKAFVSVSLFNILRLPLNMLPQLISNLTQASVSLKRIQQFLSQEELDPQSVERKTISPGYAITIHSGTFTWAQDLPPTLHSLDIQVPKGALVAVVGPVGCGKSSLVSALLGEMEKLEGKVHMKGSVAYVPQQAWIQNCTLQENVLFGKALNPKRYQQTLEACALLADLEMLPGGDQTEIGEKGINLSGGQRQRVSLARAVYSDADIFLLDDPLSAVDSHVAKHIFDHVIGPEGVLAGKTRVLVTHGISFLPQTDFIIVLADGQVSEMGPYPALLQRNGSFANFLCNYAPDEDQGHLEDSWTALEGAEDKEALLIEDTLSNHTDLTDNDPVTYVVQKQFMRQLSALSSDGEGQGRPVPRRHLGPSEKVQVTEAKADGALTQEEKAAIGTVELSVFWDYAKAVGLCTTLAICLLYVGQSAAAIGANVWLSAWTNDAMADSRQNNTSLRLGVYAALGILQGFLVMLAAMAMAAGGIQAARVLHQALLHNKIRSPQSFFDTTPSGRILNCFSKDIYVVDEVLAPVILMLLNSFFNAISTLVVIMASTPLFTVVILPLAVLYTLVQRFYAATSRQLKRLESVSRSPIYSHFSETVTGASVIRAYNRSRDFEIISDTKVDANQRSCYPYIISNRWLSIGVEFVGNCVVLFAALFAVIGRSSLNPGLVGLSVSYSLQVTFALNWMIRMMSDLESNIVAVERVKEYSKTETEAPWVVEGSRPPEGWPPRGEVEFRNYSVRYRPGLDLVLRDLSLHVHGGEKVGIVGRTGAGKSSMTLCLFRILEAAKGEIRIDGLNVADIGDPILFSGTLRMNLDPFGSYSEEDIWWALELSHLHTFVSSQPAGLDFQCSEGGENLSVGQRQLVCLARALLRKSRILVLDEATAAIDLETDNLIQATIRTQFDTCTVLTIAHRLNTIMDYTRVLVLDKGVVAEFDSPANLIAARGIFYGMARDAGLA

As for `C[C@H](CCC(=O)NCC(=O)O)[C@H]1CC[C@H]2[C@@H]3CC[C@@H]4C[C@H](OS(=O)(=O)O)CC[C@]4(C)[C@H]3CC[C@]12C`, the Activity in experiment [1] and in [2] was 29% in each case.

For the compound `C[C@H](CCC(=O)NCCS(=O)(=O)O)[C@H]1CC[C@H]2[C@@H]3[C@H](O)C[C@@H]4C[C@H](O)CC[C@]4(C)[C@H]3CC[C@]12C`, the Activity in experiment [3] and in [4] was 6% throughout.

On to `CN(C)C(=O)CCSC(SCCC(=O)O)c1cccc(/C=C/c2ccc3ccc(Cl)cc3n2)c1` (centres undefined), for which the Activity in experiment [5] and in experiment [6] was 40% throughout.

Regarding `C[C@H](CCC(=O)NCCS(=O)(=O)O)C1CC[C@H]2[C@@H]3CC[C@@H]4C[C@H](OS(=O)(=O)O)CC[C@]4(C)[C@H]3CC[C@]12C` (some centres undefined), the Activity in experiment [7] and in experiment [8] was 8% in each case.

As for `C[C@H](CCC(=O)NCCS(=O)(=O)O)[C@H]1CC[C@H]2[C@@H]3CC[C@@H]4C[C@H](O)CC[C@]4(C)[C@H]3C[C@H](O)[C@]12C`, the Activity in experiment [9] and in experiment [10] was 9% in each case.

With `C[C@H](CCC(=O)O)[C@H]1CC[C@H]2[C@@H]3CC[C@@H]4C[C@H](OS(=O)(=O)O)CC[C@]4(C)[C@H]3CC[C@]12C`, the Activity in [11] and in experiment [12] was 24% throughout.

In the case of `C[C@H](CCC(=O)NCC(=O)O)[C@H]1CC[C@H]2[C@@H]3[C@H](O)C[C@@H]4C[C@H](O)CC[C@]4(C)[C@H]3C[C@H](O)[C@]12C`, the Activity in experiment [13] and in experiment [14] was 30% in each case.

The values above are taken from ChEMBL document CHEMBL2074306, “Transport of bile acids in multidrug-resistance-protein 3-overexpressing cells co-transfected with the ileal Na+-dependent bile-acid transporter” (Biochem J, 2003).
